Assay results published in paper PMC6826616, “Topical 2′-Hydroxyflavanone for Cutaneous Melanoma” (Cancers, 2019).

Columns and labels:
Type in all cases: cell-based
B16-F0 cells = assay: MTT cytotoxicity assay, B16-F0; settings: Mus musculus, B16F0; Table 1, agent alone; read-out: IC50
Source text: (§1) We studied the growth-inhibitory effects of 2HF on the B16-F0 and B16-F10 murine melanoma cell lines as well as on the SK-MEL-24 human melanoma cell line. B16-F10 and SK-MEL-24 have been shown in previous studies to be highly resistant to treatment and much more invasive than B16-F0 [32]. […] The absorption value measured upon reduction of the MTT dye by functional mitochondria is an indirect measure of cell number that cannot distinguish inhibited cell proliferation from apoptotic or necrotic cell death. By counting viable (trypan-blue dye-excluding) cells using a hemacytometer, we verified that 2HF did indeed cause cell death.
(§2) Figure 1 Mouse and human melanoma cell survival following 2′-hydroxyflavanone (2HF) treatment.
(§3) The IC50 of 2HF on B16-F0, B16-F10, and SK-MEL-24 cells was determined by MTT cytotoxicity assay. Cells were harvested and Trypan Blue dye exclusion test was used to determine the number of viable cells present in a cell suspension using a hemocytometer. The cell suspension was diluted to 5 × 10^4 cells/mL with Dulbecco’s Modified Eagle’s Medium (DMEM) complete medium and 5000 cells/well were plated in 96-well plates. After 24 h incubation at 37 °C, cells were treated with 2HF concentrations ranging from 0–200 µM (8 replicates per plate). After 48 or 72 h incubation, 40 µL of MTT (5 mg/mL) solution was added. After 4 h incubation, the plate was centrifuged at 700× g for 5 min and medium was aspirated completely. Then, 50 µL DMSO was added to each well to dissolve the purple precipitate on the rocking platform for about 15 min. The absorbance was then measured at 490 nm using a 96-well microplate reader (Spectramax Plus, Molecular Devices, Inc, San Jose, CA, USA).

B16-F10 cells = assay: MTT cytotoxicity assay, B16-F10; settings: Mus musculus, Table 1, agent alone, read-out: IC50
Source text: as §1, §2, §3

SK-MEL-24 cells = assay: MTT cytotoxicity assay, SK-MEL-24; settings: Homo sapiens, Table 1, agent alone, read-out: IC50
Source text: as §1, §2, §3

COC1CCN(C(=O)c2cc(Cc3n[nH]c(=O)c4ccccc34)ccc2F)CC1 [PARP1i, AZD 2461, reference compound] showed an IC50 (B16-F0 cells) of 16.5 ± 4.86 µM, an IC50 (B16-F10 cells) of 29.9 ± 28.5 µM and an IC50 (SK-MEL-24 cells) of 55 ± 23.9 µM.
